US20100298141A1, “SUBSTITUTED PYRIDINE N-OXIDE HERBICIDES” (E. I. DU PONT DE NEMOURS AND COMPANY, priority 2007, published 2010)

What was measured:
lambsquarters = experiment: Test C pre-/postemergence test; assay type: in vivo, Chenopodium album; conditions: for Plant response rating (0 to 100), Lambsquarters: 250 g ai/ha
Summary of the method: (§1)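 Test chemicals were formulated with surfactant in a non-phytotoxic solvent and sprayed both on freshly planted seeds (preemergence) and on 1- to 4-leaf plants of 2–18 cm (postemergence). Flooded-paddy pots received compound directly into 3 cm of standing water, maintained for the test.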

Surinam grass = experiment: Test C pre-/postemergence test; assay type: in vivo, Brachiaria decumbens; conditions: for Surinam Grass plant response rating: preemergence, scale 0 (no effect) to 100 (complete control); for Plant response rating (0 to 100), Surinam Grass: Preemergence, 250 g ai/ha
Summary of the method: as §1

giant foxtail = experiment: Test A pre-/postemergence greenhouse test; assay type: in vivo, Setaria faberi; conditions: for Foxtail, Giant plant response rating: 0 to 100 scale; for Plant response rating, Foxtail, Giant: 0 to 100 scale where 0 is no effect and 100 is complete control
Summary of the method: (§2)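 Each test compound, dissolved in a non-phytotoxic solvent mixture with surfactant, was sprayed directly onto seeded soil (loam/sand blend) and, at the same moment, onto seedlings carrying one to two leaves. Around ten greenhouse days later, plants were rated visually for injury relative to untreated controls.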

morningglory = experiment: Test A pre-/postemergence greenhouse test; assay type: in vivo, Ipomoea spp.; conditions: for Morningglory plant response rating: 0 to 100 scale; for Plant response rating, Morningglory: 0 to 100 scale where 0 is no effect and 100 is complete control
Summary of the method: as §2

Goosegrass = experiment: Test C pre-/postemergence test; assay type: in vivo, Eleusin indica; conditions: for Plant response rating (0 to 100), Goosegrass: 250 g ai/ha
Summary of the method: as §1

wheat [1] = experiment: Test A pre-/postemergence greenhouse test; assay type: in vivo, Triticum aestivum; conditions: for Wheat plant response rating: 0 to 100 scale; for Plant response rating, Wheat: 0 to 100 scale where 0 is no effect and 100 is complete control
Summary of the method: as §2

pigweed = experiment: Test C pre-/postemergence test; assay type: in vivo, Amaranthus retroflexus; conditions: for Plant response rating (0 to 100), Pigweed: 250 g ai/ha
Summary of the method: as §1

umbrella sedge = experiment: Test C flooded paddy test; assay type: in vivo, Cyperus difformis; conditions: Flood
Summary of the method: (§3)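 Compound was added to standing water 3 cm above soil, flood maintained, and plants held in a greenhouse before visual scoring against controls at 13 to 15 days.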

crabgrass = experiment: Test C pre-/postemergence test; assay type: in vivo, Digitaria sanguinalis; conditions: for Plant response rating (0 to 100), Crabgrass, Large: 250 g ai/ha
Summary of the method: as §1

eastern black nightshade = experiment: Test C pre-/postemergence test; assay type: in vivo, Solanum ptycanthum
Summary of the method: as §1

corn = experiment: Test A pre-/postemergence greenhouse test; assay type: in vivo, Zea mays; conditions: for Corn plant response rating: 0 to 100 scale; for Plant response rating, Corn: 0 to 100 scale where 0 is no effect and 100 is complete control
Summary of the method: as §2

bermudagrass = experiment: Test C pre-/postemergence test; assay type: in vivo, Cynodon dactylon; conditions: for Plant response rating (0 to 100), Bermudagrass: 250 g ai/ha
Summary of the method: as §1

[2] = system: common (oilseed) sunflower; experiment: Test C pre-/postemergence test; assay type: in vivo, Helianthus annuus; conditions: for Sunflower plant response rating: preemergence, scale 0 (no effect) to 100 (complete control); for Plant response rating (0 to 100), Sunflower: Preemergence, 250 g ai/ha
Summary of the method: as §1

wheat [3] = experiment: Test C pre-/postemergence test; assay type: in vivo, Triticum aestivum; conditions: for Wheat plant response rating: preemergence, scale 0 (no effect) to 100 (complete control); for Plant response rating (0 to 100), Wheat: Preemergence, 250 g ai/ha
Summary of the method: as §1

rice = experiment: Test C flooded paddy test; assay type: in vivo, Oryza sativa; conditions: Flood
Summary of the method: as §3

redroot pigweed = experiment: Test A pre-/postemergence greenhouse test; assay type: in vivo, Amaranthus retroflexus; conditions: for Pigweed plant response rating: 0 to 100 scale; for Plant response rating, Pigweed: 0 to 100 scale where 0 is no effect and 100 is complete control
Summary of the method: as §2

barnyardgrass = experiment: Test A pre-/postemergence greenhouse test; assay type: in vivo, Echinochloa crus-galli; conditions: for Barnyardgrass plant response rating: 0 to 100 scale; for Plant response rating, Barnyardgrass: 0 to 100 scale where 0 is no effect and 100 is complete control
Summary of the method: as §2

[4] = 31 g ai/ha, Preemergence, scale 0 to 100
[5] = 62 g ai/ha, preemergence, scale 0 (no effect) to 100 (complete control)
[6] = preemergence, 125 g ai/ha, scale 0 (no effect) to 100 (complete control)
[7] = Postemergence, 125 g ai/ha, 0 is no effect, 100 is complete control
[8] = Postemergence, 500 g ai/ha, 0 is no effect, 100 is complete control
[9] = Preemergence, 125 g ai/ha, 0 no effect, 100 complete control
[10] = 31 g ai/ha, scale 0 to 100 (0 no effect, 100 complete control)
[11] = 62 g ai/ha, scale 0 to 100, 0 no effect, 100 complete control, 13 to 15 days
[12] = 125 g ai/ha, scale 0 to 100, 0 no effect, 100 complete control, 13 to 15 days
[13] = 250 g ai/ha, scale 0 to 100 (0 no effect, 100 complete control)

Structure (SMILES): Cn1nc(C(F)(F)F)c(C[S+]([O-])c2ccc(Br)c[n+]2[O-])c1OC(F)F (racemic) [Compound 16]
- Lambsquarters plant response rating (lambsquarters; [4]): 80
- Lambsquarters plant response rating (lambsquarters; [5]): 90
- Plant response rating (0 to 100), Lambsquarters (lambsquarters; Preemergence): 100
- Lambsquarters plant response rating (lambsquarters; [6]): 100
- Surinam Grass plant response rating (Surinam grass; 62 g ai/ha): 55
- Plant response rating (0 to 100), Surinam Grass (Surinam grass): 100
- Surinam Grass plant response rating (Surinam grass; 125 g ai/ha): 100
- Foxtail, Giant plant response rating (giant foxtail; [7]): 80
- Foxtail, Giant plant response rating (giant foxtail; [8]): 90
- Foxtail, Giant plant response rating (giant foxtail; [9]): 100
- Plant response rating, Foxtail, Giant (giant foxtail; Preemergence, 500 g ai/ha): 100
- Morningglory plant response rating (morningglory; [7]): 20
- Morningglory plant response rating (morningglory; [8]): 60
- Morningglory plant response rating (morningglory; [9]): 30
- Plant response rating, Morningglory (morningglory; Preemergence, 500 g ai/ha): 80
- Goosegrass plant response rating (Goosegrass; [4]): 98
- Goosegrass plant response rating (Goosegrass; [5]): 100
- Plant response rating (0 to 100), Goosegrass (Goosegrass; Preemergence): 100
- Goosegrass plant response rating (Goosegrass; [6]): 100
- Wheat plant response rating (wheat [1]; [7]): 60
- Wheat plant response rating (wheat [1]; [8]): 70
- Wheat plant response rating (wheat [1]; [9]): 60
- Plant response rating, Wheat (wheat [1]; Preemergence, 500 g ai/ha): 80
- Pigweed plant response rating (pigweed; [4]): 100
- Pigweed plant response rating (pigweed; [5]): 100
- Plant response rating (0 to 100), Pigweed (pigweed; Preemergence): 100
- Pigweed plant response rating (pigweed; [6]): 100
- Plant response rating, Sedge, Umbrella (umbrella sedge; [10]): 0
- Plant response rating, Sedge, Umbrella (umbrella sedge; [11]): 0
- Plant response rating, Sedge, Umbrella (umbrella sedge; [12]): 0
- Plant response rating, Sedge, Umbrella (umbrella sedge; 250 g ai/ha, scale 0 to 100, 0 no effect, 100 complete control, 13 to 15 days): 0
- Crabgrass, Large plant response rating (crabgrass; [4]): 80
- Crabgrass, Large plant response rating (crabgrass; [5]): 98
- Plant response rating (0 to 100), Crabgrass, Large (crabgrass; Preemergence): 100
- Crabgrass, Large plant response rating (crabgrass; [6]): 100
- Nightshade plant response rating (eastern black nightshade; [4]): 100
- Nightshade plant response rating (eastern black nightshade; [5]): 100
- Plant response rating (0 to 100), Nightshade (eastern black nightshade; Preemergence, 250 g ai/ha): 100
- Nightshade plant response rating (eastern black nightshade; [6]): 100
- Corn plant response rating (corn; [7]): 50
- Corn plant response rating (corn; [8]): 60
- Corn plant response rating (corn; [9]): 0
- Plant response rating, Corn (corn; Preemergence, 500 g ai/ha): 60
- Bermudagrass plant response rating (bermudagrass; [4]): 80
- Bermudagrass plant response rating (bermudagrass; [5]): 98
- Plant response rating (0 to 100), Bermudagrass (bermudagrass; Preemergence): 100
- Bermudagrass plant response rating (bermudagrass; [6]): 100
- Sunflower plant response rating ([2]; 62 g ai/ha): 30
- Plant response rating (0 to 100), Sunflower [2]: 85
- Sunflower plant response rating ([2]; 125 g ai/ha): 50
- Wheat plant response rating (wheat [3]; 62 g ai/ha): 30
- Plant response rating (0 to 100), Wheat (wheat [3]): 90
- Wheat plant response rating (wheat [3]; 125 g ai/ha): 60
- Plant response rating, Rice (rice; [10]): 0
- Plant response rating, Rice (rice; [11]): 0
- Plant response rating, Rice (rice; [12]): 0
- Plant response rating, Rice (rice; [13]): 0
- Pigweed plant response rating (redroot pigweed; [7]): 20
- Pigweed plant response rating (redroot pigweed; [8]): 70
- Pigweed plant response rating (redroot pigweed; [9]): 100
- Plant response rating, Pigweed (redroot pigweed; Preemergence, 500 g ai/ha): 100
- Barnyardgrass plant response rating (barnyardgrass; [7]): 90
- Barnyardgrass plant response rating (barnyardgrass; [8]): 100
- Barnyardgrass plant response rating (barnyardgrass; [9]): 90
- Plant response rating, Barnyardgrass (barnyardgrass; Preemergence, 500 g ai/ha): 100

Structure (SMILES): Cn1nc(C(F)(F)F)c(CS(=O)(=O)c2cccc[n+]2[O-])c1Cl [Compound 9]
- Lambsquarters plant response rating (lambsquarters; [4]): 0
- Plant response rating (0 to 100), Lambsquarters (lambsquarters; Preemergence): 100
- Lambsquarters plant response rating (lambsquarters; [6]): 80
- Plant response rating (0 to 100), Surinam Grass (Surinam grass): 100
- Surinam Grass plant response rating (Surinam grass; 125 g ai/ha): 85
- Foxtail, Giant plant response rating (giant foxtail; [7]): 90
- Foxtail, Giant plant response rating (giant foxtail; [8]): 90
- Foxtail, Giant plant response rating (giant foxtail; [9]): 100
- Plant response rating, Foxtail, Giant (giant foxtail; Preemergence, 500 g ai/ha): 100
- Morningglory plant response rating (morningglory; [7]): 20
- Morningglory plant response rating (morningglory; [8]): 70
- Morningglory plant response rating (morningglory; [9]): 40
- Plant response rating, Morningglory (morningglory; Preemergence, 500 g ai/ha): 70
- Goosegrass plant response rating (Goosegrass; [4]): 100
- Plant response rating (0 to 100), Goosegrass (Goosegrass; Preemergence): 100
- Goosegrass plant response rating (Goosegrass; [6]): 100
- Wheat plant response rating (wheat [1]; [7]): 40
- Wheat plant response rating (wheat [1]; [8]): 60
- Wheat plant response rating (wheat [1]; [9]): 50
- Plant response rating, Wheat (wheat [1]; Preemergence, 500 g ai/ha): 70
- Pigweed plant response rating (pigweed; [4]): 100
- Plant response rating (0 to 100), Pigweed (pigweed; Preemergence): 100
- Pigweed plant response rating (pigweed; [6]): 100
- Plant response rating, Sedge, Umbrella (umbrella sedge; [10]): 0
- Plant response rating, Sedge, Umbrella (umbrella sedge; [11]): 85
- Plant response rating, Sedge, Umbrella (umbrella sedge; [12]): 90
- Plant response rating, Sedge, Umbrella (umbrella sedge; [13]): 100
- Crabgrass, Large plant response rating (crabgrass; [4]): 100
- Plant response rating (0 to 100), Crabgrass, Large (crabgrass; Preemergence): 100
- Crabgrass, Large plant response rating (crabgrass; [6]): 100
- Nightshade plant response rating (eastern black nightshade; [4]): 80
- Nightshade plant response rating (eastern black nightshade; [6]): 100
- Corn plant response rating (corn; [7]): 20
- Corn plant response rating (corn; [8]): 60
- Corn plant response rating (corn; [9]): 40
- Plant response rating, Corn (corn; Preemergence, 500 g ai/ha): 60
- Bermudagrass plant response rating (bermudagrass; [4]): 98
- Plant response rating (0 to 100), Bermudagrass (bermudagrass; Preemergence): 100
- Bermudagrass plant response rating (bermudagrass; [6]): 100
- Plant response rating (0 to 100), Sunflower [2]: 70
- Sunflower plant response rating ([2]; 125 g ai/ha): 5
- Wheat plant response rating (wheat [3]; 62 g ai/ha): 30
- Plant response rating (0 to 100), Wheat (wheat [3]): 70
- Wheat plant response rating (wheat [3]; 125 g ai/ha): 45
- Plant response rating, Rice (rice; [10]): 10
- Plant response rating, Rice (rice; [11]): 40
- Plant response rating, Rice (rice; [12]): 70
- Plant response rating, Rice (rice; [13]): 70
- Pigweed plant response rating (redroot pigweed; [7]): 10
- Pigweed plant response rating (redroot pigweed; [8]): 60
- Pigweed plant response rating (redroot pigweed; [9]): 100
- Plant response rating, Pigweed (redroot pigweed; Preemergence, 500 g ai/ha): 100
- Barnyardgrass plant response rating (barnyardgrass; [7]): 80
- Barnyardgrass plant response rating (barnyardgrass; [8]): 80
- Barnyardgrass plant response rating (barnyardgrass; [9]): 100
- Plant response rating, Barnyardgrass (barnyardgrass; Preemergence, 500 g ai/ha): 100
